Where “and” joins values, the source holds several entries; their conditions need not be identical. Equal values may be shown once.
Experiments:
Conditions in all cases: in vivo
Nonparasitic nematodes = test system: Nonparasitic nematodes
Fusarium oxysporum = test system: Fusarium oxysporum
Xiphinema index = test system: Xiphinema index
Xiphinema americanum = test system: Xiphinema americanum
Tylenchorhynchus spp. = test system: Tylenchorhynchus spp.
[1] = test system: total plant-parasitic nematode population
[2] = test system: dagger nematode (Xiphinema index+Xiphinema americanum)

Structure (SMILES): CNC(=S)[S-].[Na+] [Metham Sodium 1X, Metham sodium]
- Nonparasitic nematodes (Nonparasitic nematodes): 944a Nematodes/250 cc soil and 651d Nematodes/250 cc soil

Structure (SMILES): CI [Methyl Iodide 0.5X, Methyl iodide]
- Fusarium oxysporum (Fusarium oxysporum): 3.79a Log (cfu/g soil) and 3.44a Log (cfu/g soil)

Structure (SMILES): C#CCBr [Propargyl Bromide, Propargyl bromide]
- Nonparasitic nematodes (Nonparasitic nematodes): 1,304a Nematodes/250 cc soil and 1,600cd Nematodes/250 cc soil
- Fusarium oxysporum (Fusarium oxysporum): 1.26d Log (cfu/g soil) and 1.10cd Log (cfu/g soil)

Structure (SMILES): CCOP(=O)(NC(C)C)Oc1ccc(SC)c(C)c1 (stereo not shown) [FENAMIPHOS®, FENAMIPHOS]
- Plant-parasitic Nematode Population: Xiphinema index (Xiphinema index): 30.00a per 250 cc soil
- population increase in the soil Xiphinema index populations relative to the untreated control (Xiphinema index): 30%
- reduction of Xiphinema index populations (Xiphinema index): 84%
- Plant-parasitic Nematode Population: Xiphinema americanum (Xiphinema americanum): 10.00a per 250 cc soil and 9.00a per 250 cc soil and 5.40a per 250 cc soil
- decrease in the Xiphinema americanum populations relative to the untreated control (Xiphinema americanum): no effect
- decrease of the Xiphinema americanum population relative to T5 (Xiphinema americanum): not controlled
- Plant-parasitic Nematode Population: Tylenchorhynchus spp. (Tylenchorhynchus spp.): 0.00a per 250 cc soil
- Plant-parasitic Nematode Population: Total [1]: 80.00a per 250 cc soil and 94.00a per 250 cc soil and 105.80a per 250 cc soil
- decrease in overall total plant-parasitic nematode population relative to the untreated control [1]: 30% and 31%
- decrease in overall total plant-parasitic nematodes populations relative to the untreated control [1]: 51%
- reduction in group nematode population without considering the Helicotylenchus nematode species [1]: 12%
- reduction in the dagger nematode (Xiphinema index+Xiphinema americanum) populations relative to T5 [2]: 73%
